Measured values: US20140005163A1 (NOVARTIS AG, priority 2010, published 2014)

Key:
[1] = tested on: S6 Ribosomal Protein phosphorylation Ser235/236 in TSC1 null mouse embryo fibroblast (MEF) cells; test: Reverse protein array assay, S6 Ribosomal Protein phosphorylation Ser235/236 in TSC1 null MEF cells; type: cell-based; details: 1 h, pS6 ribosomal protein Ser235/236, 60 minutes incubation, read-out: p-S6 IC50
Method in brief: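 TSC1−/− MEFs, seeded and held ≥20 h at 37 °C/5% CO2, were exposed to 8-step serial compound dilutions (0.02% DMSO final; DMSO vehicle control) for 60 min at 37 °C. Cells were then lysed on ice for 10 min and lysates spotted onto reverse protein array chips.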

[2] = tested on: PKB Ser473 phosphorylation in Rat1-myr-HA-p110 delta cells; test: Reverse protein array assay, PKB Ser473 phosphorylation in Rat1-myr-p110 delta cells; type: cell-based; details: read-out: p-PKB IC50
Method in brief: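 Compound exposure lasted 30 min in Rat1 cells bearing membrane-targeted HA-p110 isoforms, using 8 serial concentrations. Arrayed lysates, each spotted at four dilutions, gave relative fluorescence signals for phospho-Ser473 PKB.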

[3] = molecular target: T1, mTOR (Homo sapiens, UniProt P42345); test: Biochemical assay for m-TOR by TR-FRET; details: 8 μM ATP, 400 nM GFP-4EBP1, 0.5 nM mTOR
T1 construct: purchased Invitrogen Corporation (Carlsbad/CA, USA) PV4753
Method in brief: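 Enzyme 0.5 nM, GFP-4EBP1 400 nM, ATP 8 μM (all final); 50 mM HEPES pH 7.5, 10 mM MnCl2, 1 mM DTT; rt. Detection: Tb-α-p4EBP1 [pT46] 0.5 nM in EDTA, TR-FRET, 15 min. Reference compound on every plate, 16-point duplicate dilutions.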

T1 sequence (P42345 1360-2549 limits assumed): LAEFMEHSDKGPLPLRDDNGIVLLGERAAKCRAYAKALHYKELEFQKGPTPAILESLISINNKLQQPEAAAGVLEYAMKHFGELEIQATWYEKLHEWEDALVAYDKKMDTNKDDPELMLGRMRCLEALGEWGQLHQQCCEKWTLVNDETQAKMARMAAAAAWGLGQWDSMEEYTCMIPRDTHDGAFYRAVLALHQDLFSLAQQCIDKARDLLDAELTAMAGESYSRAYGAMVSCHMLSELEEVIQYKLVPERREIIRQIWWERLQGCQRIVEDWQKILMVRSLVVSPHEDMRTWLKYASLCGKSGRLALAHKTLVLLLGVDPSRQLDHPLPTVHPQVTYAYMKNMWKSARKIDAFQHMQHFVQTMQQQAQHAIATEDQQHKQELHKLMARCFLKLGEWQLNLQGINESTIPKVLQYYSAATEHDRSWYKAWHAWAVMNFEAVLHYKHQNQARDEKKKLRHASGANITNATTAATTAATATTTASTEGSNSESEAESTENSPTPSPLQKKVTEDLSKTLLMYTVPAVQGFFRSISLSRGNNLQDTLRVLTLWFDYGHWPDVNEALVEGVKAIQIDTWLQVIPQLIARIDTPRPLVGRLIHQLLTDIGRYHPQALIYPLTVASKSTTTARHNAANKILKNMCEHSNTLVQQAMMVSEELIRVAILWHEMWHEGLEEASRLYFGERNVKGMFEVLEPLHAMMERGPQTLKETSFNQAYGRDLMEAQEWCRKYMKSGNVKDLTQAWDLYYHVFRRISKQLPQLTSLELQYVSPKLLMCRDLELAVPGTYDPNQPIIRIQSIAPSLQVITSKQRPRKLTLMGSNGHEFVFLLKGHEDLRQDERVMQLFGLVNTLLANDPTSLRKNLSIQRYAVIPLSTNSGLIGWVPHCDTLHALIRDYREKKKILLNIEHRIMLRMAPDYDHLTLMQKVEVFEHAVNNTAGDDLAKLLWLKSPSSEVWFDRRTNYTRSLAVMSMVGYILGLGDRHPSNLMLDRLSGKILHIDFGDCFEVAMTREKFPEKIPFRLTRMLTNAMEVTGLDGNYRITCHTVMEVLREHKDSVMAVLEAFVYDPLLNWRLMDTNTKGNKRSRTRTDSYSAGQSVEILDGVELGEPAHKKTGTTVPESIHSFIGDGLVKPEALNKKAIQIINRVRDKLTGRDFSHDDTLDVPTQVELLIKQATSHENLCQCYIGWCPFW

## Cc1nn(CC(=O)N2CCC2)cc1-n1c(=O)n(C)c2cnc3ccc(-c4cnc(N5CCCC5)nc4)cc3c21 [Example 247.2, 1-[1-(2-Azetidin-1-yl-2-oxo-ethyl)-3-methyl-1H-pyrazol-4-yl]-3-methyl-8-(2-pyrrolidin-1-yl-pyrimidin-5-yl)-1,3-dihydro-imidazo[4,5-c]quinolin-2-one]
[1]
  IC50: 9 nM
[2]
  IC50: 288 nM
[3]
  IC50: 12 nM
